Consider six compounds from patent publication US9238022B2, “Xanthanodien for the treatment of cancer” (priority 2010, dated 2016).

The subject of one series is leukocytes. The settings on record: Dupuis & Brisson 1976; cited from earlier work.
The subject of another series is P388 Leukemia. The settings on record: NCI screening data 1972; cited from earlier work.
The subject of series [1] is ovarian cancer cells JC, NIH:OVCAR-3, SKOV-3. The experiment in a line: In vitro cytotoxicity test (Alamar blue, microscopy) on ovarian cancer cells. Format: cell-based. The settings on record: for cytotoxicity towards ovarian cancer cells (in words): 1, 5 and 10 μg/mL. The protocol: (§1) Cells used in the assays were an ovarian cell line, JC (van Haaften-Day et al. 1983. Cancer Research 43: 3725-3731), OVCAR-3 and SKOV-3, The American Type Culture Collection (ATCC), a melanoma line (MM-An, Byers et al. 1991. Am J Path 139, No 2: 423-435) and normal human diploid fibroblasts primary cultures (Brookes et al. 2002 The EMBO Journal Vol. 21, No. 12: 2936-2945).
(§2) In vitro cytotoxicity tests were performed using a non-fluorescent substrate, Alamar blue (BioSource, Invitrogen, UK) as described by Page et al. (Page B, Page M and Noel C. 1993. International Journal of Oncology 3: 473-476).
(§3) Ovarian cancer cells (1×10^4 or 5×10^4) were seeded in 24-well plates (Costar, USA) and grown in RPMI-1640, supplemented with 6 mM L-glutamine, 10% fetal calf serum (FCS) (Gibco, Invitrogen, UK) and penicillin (100 units/mL) and streptomycin (100 μg/mL), while melanoma cells and normal fibroblasts were grown in Dulbecco's modified Eagle medium (DMEM), also supplemented with L-glutamine and FCS. The cultures were maintained in a humidified atmosphere of 5% CO2 at 37° C.
(§4) The in exponential growth cultures (in triplicates) were treated with the compound, dissolved in dimethyl sulfoxide (DMSO) and added at final concentrations of 1, 5, and 10 μg/mL. In 2 mL medium/well 10% Alamar blue was added and 100 μl of the supernatant of the 24-well plates after 24, 48 and 72 hrs were pipetted into 96-well plates (Costar, USA). Cell viability was measured with a 96-well plate reader (Molecular Devices Ltd, UK).
(§5) Ovarian cancer cells JC, NIH:OVCAR-3, Skov-3, fibroblasts as well as melanoma cancer cells MM-AN were used for cytotoxicity tests with EPD and EPA. The final concentrations of EPD and EPA added to the growth medium were 1, 5 and 10 μg/ml per well.
(§6) Photographs were taken from the ovarian cancer cell line JC, the melanoma cell line MM-An and normal fibroblasts in 24-well plates using a Leica inverted microscope at a magnification of 100 times. Concentrations of EPD ranged 1-10 μg/mL and the experiments were terminated at 48 and 72 hrs (FIGS. 6-8).
Cell viability was measured by adding 10% Alamar Blue (BioSource, Invitrogen, UK) to ovarian cancer cell cultures (OVCAR-3, SKOV-3) to 1, 5 and 10 μg/ml of EPD and to the control cultures (as described above). After 24, 48 and 72 hours incubation, 100 μl of culture supernatant was taken and cell viability measured with a plate reader (Molecular Devices, Ltd, UK) according to the manufacturer's instructions. The results are depicted in FIGS. 3-5 and confirm that the phenomenon observed in the photographs of FIGS. 6-8 is cell death.
Background: The colour change of resazurin is a common sign of viable cells or microbes.

Series [2] concerns normal human diploid fibroblasts. The experiment in a line: In vitro cytotoxicity test on normal cells. Format: cell-based. The protocol: The cultures were maintained in a humidified atmosphere of 5% CO2 at 37° C.
as §4, §5, §6

For another series, the system named is melanoma cells MM-AN. The experiment in a line: In vitro cytotoxicity test on melanoma cells. It is filed as cell-based. The protocol: as §1, §2, §3, §4, §5, §6
The next series deals with NIH:OVCAR-3 cells. In words: Ovarian cancer animal model (i.p. OVCAR-3 ascites). It is filed as in vivo, Balb/c nu/nu mice. The protocol: In order to assess the efficacy of EPD in the treatment of ovarian cancer, in vivo experiments were performed with Balb/c nu/nu mice (Charles River Laboratories, France). As a model system of advanced ovarian cancer, a total of 20 Balb/c nu/nu mice were inoculated intra-peritoneally (i.p.) with 1.0×10^7 cells NIH:OVCAR-3 cells (American Type Culture Collection (ATCC number: HTB-161™)/200 μl PBS. NIH:OVCAR-3 is an appropriate model system in which to study drug resistance in ovarian cancer. Upon inoculation into the abdominal cavity ascites were formed at first in only 5 mice. One mouse after having developed a large abdomen was sacrificed and the ascites cells were inoculated into the 15 mice which had not developed ascites. Another mouse was sacrificed to freeze down the cells. […] The 15 mice without ascites were devided into 3 groups of 5 mice. One group served as control, one group received the standard chemotherapy cisplatin and one group received the test drug EPD.
Drugs were given 200 μl/mouse i.p. in order to assess their efficacy as anti-tumor drug. The weight of mice when drug-treated varied between 22 and 26 gram, all with a swollen abdomen. Reduction of the swollen abdomen of the mice (resulting from the killing of the OVCAR-3 cells) was then studied.
Eremophila-1(10)-11(13)-dien-12,8β-olide (EPD) was administered at 20 mg/kg body weight. EPD was isolated from Calomeria amaranthoides as described in Example 1 above. The drug was inoculated twice a week into the abdominal cavity of the mice.

The mark [3] stands for this setting: 20 mg/kg i.p. twice a week for 6 weeks.

Structures are written as SMILES. “Also recorded” adds a separate entry of the source.

Turning to `C=C1C(=O)O[C@@H]2C[C@@]3(C)CCC[C@H](C)C3=C[C@H]12` [alantolactone], the toxicity to leukocytes result in the series with leukocytes was “toxic”.
`C=C1C(=O)O[C@H]2CC3=CCC[C@H](C)[C@@]3(C)C[C@@H]12` [napthofuranone, (3aβ,4aα,5α,9aβ)-3a,4,4a,5,6,7,9,9a-octahydro 4a,5-dimethyl-3-methylene naphtho[2,3-b]furan-2(3H)-2-one]: in the series on P388 Leukemia, the “in vivo anti-tumor activity” value is on record as “no clear results”.
Regarding `C=C(C(=O)O)[C@@H]1CCC2=CCC[C@H](C)[C@@]2(C)C1` [EPA, eremophila-1(10),11(13)-dien-12-oic acid], the “cytotoxicity towards ovarian cancer cells (in words)” value in series [1] was “non-cytotoxic; also recorded: no cytotoxicity; also recorded: did not show cytotoxic effects”. The “cytotoxicity towards normal fibroblasts (in words)” value in series [2] (1, 5 and 10 μg/mL) is recorded as “no cytotoxicity”. Further, the “cytotoxicity towards melanoma cells (in words)” value in the series with melanoma cells MM-AN (1, 5 and 10 μg/mL) is reported as “no cytotoxicity”.
`C=C1C(=O)O[C@@H]2CC3=CCC[C@H](C)[C@@]3(C)C[C@H]12` [EPD, eremophila-1(10)-11(13)-dien-12,8β-olide]: the “effect on cancer cells at 1 μg/mL” value in series [1] (1 μg/mL, in vitro) is on record as “many cancer cells were floating in the wells; also recorded: great cell loss was already seen; also recorded: substantial killing of cancer cells”. Further, the “cell death of cancer cells at 5 μg/mL” value in series [1] (5 μg/mL, 48 hours) is recorded as “Cell death was observed in the majority of cancer cells; also recorded: killed”; in the series with melanoma cells MM-AN (5 μg/mL, 48 hours, MM-An) it was “Cell death was observed in the majority of cancer cells”. Also, the “cell death of cancer cells at 10 μg/mL” value in series [1] (10 μg/mL, 48 hours) was “All cells were dead”; in the series on melanoma cells MM-AN (10 μg/mL, 48 hours, MM-An), “All cells were dead”. Moreover, the “cytotoxicity towards ovarian cancer cells (in words)” value in series [1] is on record as “significant activity; also recorded: very clear cytotoxic effects”. For the same compound, the “selectivity, cancer cells over normal cells” value in series [1] (in vitro, compared with normal cells) is on record as “selectively kills cancer cells over normal cells”. Further, in the series with NIH:OVCAR-3 cells (setting [3]), the “general health, side effects” value was “looked very healthy; also recorded: did not show any signs of side effects”. In the series with NIH:OVCAR-3 cells (setting [3]), the “swelling of the abdomen (ascites)” value is recorded as “reduced during treatment; also recorded: remission of cancer; also recorded: the ascites disappeared”. In addition, the survival result with NIH:OVCAR-3 cells (i.p. twice a week for 6 weeks) is “all the animals survived the study”. The “return of ascites after end of treatment” value in the series with NIH:OVCAR-3 cells (three mice kept one month without further treatment after 6 weeks of treatment) is given as “In one mouse the ascites returned, two mice did not develop ascites again”. Moreover, the “effect on normal cells at 5 μg/mL” value in series [2] (5 μg/mL, 48 hours) was “not or little affected; also recorded: largely unaffected; also recorded: little affected”. Also, in series [2] (10 μg/mL, 48 hours), the “effect on normal fibroblasts at 10 μg/mL” value is given as “more evidence of cell death”.
As for `CC(=O)O[C@@]12CO[C@@H]1C[C@H](O)[C@@]1(C)C(=O)[C@H](O)C3=C(C)[C@@H](OC(=O)[C@H](O)[C@@H](NC(=O)OC(C)(C)C)c4ccccc4)C[C@@](O)([C@@H](OC(=O)c4ccccc4)[C@H]21)C3(C)C` [docetaxol, reference compound], the “killing of normal cells, parallel comparison” value in series [2] (concentration of the drugs not given) is recorded as “completely kill”.
With `N.N.[Cl][Pt][Cl]` [cisplatin, reference compound], the “killing of cancer cells, parallel comparison” value in series [1] (comparison of crude extract, cisplatin and docetaxol, concentration of the drugs not given) was “all killed; also recorded: completely kill”. In addition, the “swelling of the abdomen (ascites)” value in the series with NIH:OVCAR-3 cells (5 mg/kg i.p. once a week for 4 weeks) is “reduced during treatment”. For the same compound, the “general health, side effects” value in the series with NIH:OVCAR-3 cells (5 mg/kg i.p. once a week, 4 weeks) is “got very sick; also recorded: had to be euthanized”.
